Experimental data: the supplement of paper PMC13207355
Where a name gives a salt, the structure may show the parent alone.

Columns and labels:
Details in all cases: exposure time: 72 h
FT3469 [1] = normal neural stem cell line; assay: surviving fraction (nuclei count normalised to DMSO); higher = more cells surviving (less toxic)
E28 [2] = patient-derived glioblastoma stem cells of classical subtype; assay: as above
E57 [3] = patient-derived glioblastoma stem cells of mesenchymal subtype; assay: as above
E21 [4] = patient-derived glioblastoma stem cells of mesenchymal subtype; assay: as above
E34 [5] = patient-derived glioblastoma stem cells of proneural subtype; assay: as above
E31 [6] = patient-derived glioblastoma stem cells of proneural subtype; assay: as above
E13 [7] = patient-derived glioblastoma stem cells of classical subtype; assay: as above
FT3469 [8] = assay: phenotypic distance (Euclidean, principal components) from DMSO controls (arbitrary units); higher = stronger morphological change
E28 [9] = assay: as above
E57 [10] = assay: as above
E21 [11] = assay: as above
E34 [12] = assay: as above
E31 [13] = assay: as above
E13 [14] = assay: as above
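Wherever phenotypic distance (Euclidean, principal components) from DMSO controls is given: cell Painting imaging in 384-well plates, CellProfiler features reduced to at least 20 principal components, Euclidean distance versus same-plate DMSO vehicle wells (0.1% v/v), median over six images per well.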
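Wherever surviving fraction (nuclei count normalised to DMSO) is given: nuclei counted by high-content imaging of Hoechst-stained cells in laminin-coated 384-well plates, relative to 0.1% DMSO vehicle wells, with staurosporine as cell-death control.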

OC(c1cc(C(F)(F)F)nc2c(C(F)(F)F)cccc12)C1CCCCN1 (stereo not drawn) [Mefloquine hydrochloride]
Details	phenotypic distance	surviving fraction
E13 [7], 4.1 nM	–	0.953
E13 [7], 12.3 nM	–	0.908
E13 [7], 37 nM	–	1.09
E13 [7], 111.1 nM	–	1.03
E13 [7], 333.3 nM	–	0.98
E13 [7], 1000 nM	–	0.992
E13 [7], 3000 nM	–	0.842
E13 [14], 4.1 nM	0.361	–
E13 [14], 12.3 nM	0.509	–
E13 [14], 37 nM	0.5	–
E13 [14], 111.1 nM	1.43	–
E13 [14], 333.3 nM	0.51	–
E13 [14], 1000 nM	0.651	–
E13 [14], 3000 nM	0.845	–
E21 [4], 4.1 nM	–	1.11
E21 [4], 12.3 nM	–	0.951
E21 [4], 37 nM	–	0.98
E21 [4], 111.1 nM	–	0.983
E21 [4], 333.3 nM	–	1.07
E21 [4], 1000 nM	–	1.05
E21 [4], 3000 nM	–	1.07
E21 [11], 4.1 nM	0.776	–
E21 [11], 12.3 nM	0.568	–
E21 [11], 37 nM	0.797	–
E21 [11], 111.1 nM	0.488	–
E21 [11], 333.3 nM	0.618	–
E21 [11], 1000 nM	0.511	–
E21 [11], 3000 nM	1.05	–
E28 [2], 4.1 nM	–	1.12
E28 [2], 12.3 nM	–	1
E28 [2], 37 nM	–	1.22
E28 [2], 111.1 nM	–	1.14
E28 [2], 333.3 nM	–	1.23
E28 [2], 1000 nM	–	1.21
E28 [2], 3000 nM	–	1.12
E28 [9], 4.1 nM	0.636	–
E28 [9], 12.3 nM	0.53	–
E28 [9], 37 nM	0.741	–
E28 [9], 111.1 nM	0.677	–
E28 [9], 333.3 nM	0.764	–
E28 [9], 1000 nM	1.07	–
E28 [9], 3000 nM	1.8	–
E31 [6], 4.1 nM	–	1.11
E31 [6], 12.3 nM	–	0.942
E31 [6], 37 nM	–	1.15
E31 [6], 111.1 nM	–	0.922
E31 [6], 333.3 nM	–	1.11
E31 [6], 1000 nM	–	1.06
E31 [6], 3000 nM	–	0.997
E31 [13], 4.1 nM	0.433	–
E31 [13], 12.3 nM	0.421	–
E31 [13], 37 nM	0.563	–
E31 [13], 111.1 nM	0.539	–
E31 [13], 333.3 nM	0.506	–
E31 [13], 1000 nM	0.632	–
E31 [13], 3000 nM	0.65	–
E34 [5], 4.1 nM	–	1.1
E34 [5], 12.3 nM	–	0.856
E34 [5], 37 nM	–	1.06
E34 [5], 111.1 nM	–	0.941
E34 [5], 333.3 nM	–	1.14
E34 [5], 1000 nM	–	0.908
E34 [5], 3000 nM	–	1.02
E34 [12], 4.1 nM	0.892	–
E34 [12], 12.3 nM	0.581	–
E34 [12], 37 nM	0.73	–
E34 [12], 111.1 nM	0.475	–
E34 [12], 333.3 nM	0.804	–
E34 [12], 1000 nM	0.787	–
E34 [12], 3000 nM	0.828	–
E57 [3], 4.1 nM	–	1.05
E57 [3], 12.3 nM	–	1.05
E57 [3], 37 nM	–	0.93
E57 [3], 111.1 nM	–	0.987
E57 [3], 333.3 nM	–	1.17
E57 [3], 1000 nM	–	0.93
E57 [3], 3000 nM	–	0.903
E57 [10], 4.1 nM	0.488	–
E57 [10], 12.3 nM	0.813	–
E57 [10], 37 nM	0.474	–
E57 [10], 111.1 nM	0.652	–
E57 [10], 333.3 nM	1.37	–
E57 [10], 1000 nM	0.948	–
E57 [10], 3000 nM	0.991	–
FT3469 [1], 4.1 nM	–	1.13
FT3469 [1], 12.3 nM	–	1.13
FT3469 [1], 37 nM	–	0.975
FT3469 [1], 111.1 nM	–	1.2
FT3469 [1], 333.3 nM	–	1.07
FT3469 [1], 1000 nM	–	1.02
FT3469 [1], 3000 nM	–	0.875
FT3469 [8], 4.1 nM	0.882	–
FT3469 [8], 12.3 nM	0.444	–
FT3469 [8], 37 nM	0.675	–
FT3469 [8], 111.1 nM	0.627	–
FT3469 [8], 333.3 nM	0.598	–
FT3469 [8], 1000 nM	0.423	–
FT3469 [8], 3000 nM	1.16	–
